Measured values from patent US4994376A, “Detection of bacteroides gingivalis” (priority 1987, dated 1991).
Several values for one entry are separate records, joined by “and”; a condition that tells them apart may be missing. Identical values can stand only once. Like-named read-outs stand apart in the source and are kept apart here. Numbered stars: 1 amine (or outer) side, 2 acyl side, 3 side chain; on linkers, the order of the positions; unused ones are H or OH. Peptide text beside a SMILES is read from it. CO = O=C([*:1])[*:2]

Tests used:
[1] = system: B. gingivalis N-CBz-Gly-Gly-Arg peptidase; experiment: Effect of inhibitors and enhancers on B. gingivalis peptidase activity; type: biochemical, Bacteroides gingivalis; conditions: for Inhibition of B. gingivalis enzyme activity by metals: high concentrations
[2] = system: B. intermedius; experiment: Aminopeptidase activity on β-naphthylamide substrates; type: biochemical
Procedure: (§1) The enzyme activity was measured by the chromogenic properties of N-CBz-glycyl-glycyl-L-arginine-β-naphthylamide which upon hydrolysis gives a visible color. The aminopeptidase activities listed in the table reflect the nanomoles of β-naphthylamine liberated after 60 minutes under the conditions described below.
(§2) After mixing, the solution is incubated for 1 hour at 37° C. and then 0.4 ml of a solution of stabilized diazonium salt, Fast Garnet GBC (0.5 mg/ml) in a 1M acetic acid buffer (pH 4.2), containing 10% Tween 20 was added to the mixture. After standing for 15 minutes at room temperature, the color reaction can be read manually by comparison with standard solutions or the absorbancy can be determined using a spectrophotometer at 525 nm. The reaction mixture without enzyme solution is used as a control.

[3] = system: B. denticola; experiment: as above; type: biochemical
Procedure: as §1, §2

[4] = system: C. sputigena; experiment: as above; type: biochemical
Procedure: as §1, §2

[5] = system: B. melaninogenicus; experiment: as above; type: biochemical
Procedure: as §1, §2

[6] = system: B. corporis; experiment: as above; type: biochemical
Procedure: as §1, §2

[7] = system: Fusobacterium nucleatum; type: biochemical
Procedure: as §1, §2
(§3) The enzyme activity and the aminopeptidase activities were determined in the manner described above in regard to Table I.

[8] = system: S. sanguis; type: biochemical
Procedure: as §1, §2, §3

[9] = system: Campylobacter sputorum; type: biochemical
Procedure: as §1, §2, §3

[10] = system: "Anaerobic vibrio"; type: biochemical
Procedure: as §1, §2, §3

[11] = system: Actinomyces israeli; type: biochemical
Procedure: as §1, §2, §3

[12] = system: Eikenella corrodens; type: biochemical
Procedure: as §1, §2, §3

[13] = system: A. seminis; type: biochemical
Procedure: as §1, §2, §3

[14] = system: V. parvula; type: biochemical
Procedure: as §1, §2, §3

[15] = system: S. mutans; type: biochemical
Procedure: as §1, §2, §3

[16] = system: Veillonella sp.; type: biochemical
Procedure: as §1, §2, §3

[17] = system: F. periodonticum; experiment: Aminopeptidase activity on β-naphthylamide substrates; type: biochemical
Procedure: as §1, §2, §3

[18] = system: L. fermentum; experiment: as above; type: biochemical
Procedure: as §1, §2, §3

[19] = system: Veillonella alcalesens; experiment: as above; type: biochemical
Procedure: as §1, §2, §3

[20] = system: Lactobacillus casei; experiment: as above; type: biochemical
Procedure: as §1, §2, §3

[21] = system: S. salivarius; experiment: as above; type: biochemical
Procedure: as §1, §2, §3

[22] = system: A. suis; experiment: as above; type: biochemical
Procedure: as §1, §2, §3

[23] = system: Haemophilus aphrophilus; experiment: as above; type: biochemical
Procedure: as §1, §2, §3

[24] = system: A. equuli; experiment: as above; type: biochemical
Procedure: as §1, §2, §3

[25] = system: Capnocytophaga gingivalis; type: biochemical
Procedure: as §1, §2

[26] = system: Capnocytophaga sp.; type: biochemical
Procedure: as §1, §2

[27] = system: B. mel. ss. intermedius; type: biochemical
Procedure: as §1, §2

[28] = system: C. ochracea; type: biochemical
Procedure: as §1, §2

[29] = system: A. viscosus; type: biochemical
Procedure: as §1, §2, §3

[30] = system: B. levii; type: biochemical
Procedure: as §1, §2

[31] = system: Bacteroides gingivalis; type: biochemical
Procedure: as §1, §2

[32] = strain ATCC 25611, β-naphthylamine liberated after 60 minutes, 37° C.
[33] = strain ATCC 33185, β-naphthylamine liberated after 60 minutes, 37° C.
[34] = strain ATCC 33123, β-naphthylamine liberated after 60 minutes, 37° C.
[35] = strain ATCC 25845, β-naphthylamine liberated after 60 minutes, 37° C.
[36] = strain ATCC 33547, β-naphthylamine liberated after 60 minutes, 37° C.
[37] = strain D31A-24, β-naphthylamine liberated after 60 minutes, 37° C.
[38] = strain EK1-15, β-naphthylamine liberated after 60 minutes, 37° C.
[39] = strain ATCC 11581, β-naphthylamine liberated after 60 minutes, 37° C.
[40] = strain ATCC 11748, β-naphthylamine liberated after 60 minutes, 37° C.
[41] = strain ATCC 7469, β-naphthylamine liberated after 60 minutes, 37° C.
[42] = strain ATCC 11578, β-naphthylamine liberated after 60 minutes, 37° C.
[43] = strain ATCC 11582, β-naphthylamine liberated after 60 minutes, 37° C.
[44] = strain ATCC 9759, β-naphthylamine liberated after 60 minutes, 37° C.
[45] = strain ATCC 25975, β-naphthylamine liberated after 60 minutes, 37° C.
[46] = strain ATCC 15557, β-naphthylamine liberated after 60 minutes, 37° C.
[47] = strain ATCC 13252, β-naphthylamine liberated after 60 minutes, 37° C.
[48] = strain ATCC 19415, β-naphthylamine liberated after 60 minutes, 37° C.
[49] = strain NCTC 5908, β-naphthylamine liberated after 60 minutes, 37° C.
[50] = strain ATCC 19392, β-naphthylamine liberated after 60 minutes, 37° C.

With `CC(=O)N[C@@H](CC(C)C)C(=O)N[C@@H](CC(C)C)C(=O)N[C@H](C=O)CCCNC(=N)N` [leupeptin] the “Inhibition of B. gingivalis N-CBz-glycyl-glycyl-arginylpeptidase enzyme activity” value [1] was “inhibited”.

With `N=C(N)NCCC[C@H](NC(=O)CN)C(=O)O` [Gly-Arg, Glycyl-arginine] (H-Gly-Arg-OH) the Aminopeptidase activity [2, 32] was 22 nmol, the Aminopeptidase activity [3, 33] was 4 nmol and the Aminopeptidase activity [4, 34] was 8 nmol. For the same molecule, the Aminopeptidase activity [5, 35] was 4 nmol, the Aminopeptidase activity [6, 36] was 0 nmol and the Aminopeptidase activity [7] was 0. For the same molecule, the Aminopeptidase activity [7, 37] was 1 nmol, the Aminopeptidase activity [8] was 3 and the Aminopeptidase activity [9] was 0. For the same molecule, the Aminopeptidase activity [10] was 0, the Aminopeptidase activity [11] was 0 and the Aminopeptidase activity [12] was 2. The Aminopeptidase activity [13] was 0, the Aminopeptidase activity [14] was 0 and the Aminopeptidase activity [15] was 0. For the same molecule, the Aminopeptidase activity [16] was 0, the Aminopeptidase activity [17, 38] was 0 nmol and the Aminopeptidase activity [18, 39] was 0 nmol. The Aminopeptidase activity [19, 40] was 0 nmol, the Aminopeptidase activity [20, 41] was 0 nmol and the Aminopeptidase activity [20, 42] was 0 nmol. It also gave an Aminopeptidase activity [20, 43] of 1 nmol, an Aminopeptidase activity [21, 44] of 0 nmol and an Aminopeptidase activity [21, 45] of 0 nmol. For the same molecule, the Aminopeptidase activity [22, 46] was 0 nmol, the Aminopeptidase activity [23, 47] was 0 nmol and the Aminopeptidase activity [23, 48] was 0 nmol. The Aminopeptidase activity [23, 49] was 0 nmol, the Aminopeptidase activity [24, 50] was 0 nmol and the Aminopeptidase activity [25] was 6. The Aminopeptidase activity [26] was 20, the Aminopeptidase activity [27] was 13 and 9 and the Aminopeptidase activity [28] was 11.

For `[Co]` [cobalt], the “Inhibition of B. gingivalis enzyme activity by metals” value (from here on “Inhibition … by metals”) [1] was “inhibited”.

`O=C(O)c1cc[c]([Hg][Cl])cc1` [p-chloromercuribenzoic acid] was tested, and the “Inhibition of B. gingivalis N-CBz-glycyl-glycyl-arginylpeptidase enzyme activity” value [1] was “inhibited”.

mercury was tested, and the “Sensitivity of B. gingivalis enzyme activity to heavy metal ions” value (“Sensitivity” for short) [1] was “sensitive” and the “Inhibition … by metals” value [1] was “inhibited”.

`CC(C)[C@H](NC(=O)[C@H](CCCNC(=N)N)NC(=O)N[C@@H](Cc1ccccc1)C(=O)O)C(=O)N[C@H](C=O)CCCNC(=N)N` [antipain] ({Phe-CO}-Arg-Val-Arg-aldehyde) was tested, and the “Inhibition of B. gingivalis N-CBz-glycyl-glycyl-arginylpeptidase enzyme activity” value [1] was “inhibited”.

`N=C(N)NCCC[C@H](NC(=O)[C@@H](N)CCCNC(=N)N)C(=O)O` [Arg-Arg, Arginyl-arginine] (H-Arg-Arg-OH) was tested, and the Aminopeptidase activity [2, 32] was 15 nmol, the Aminopeptidase activity [3, 33] was 16 nmol and the Aminopeptidase activity [4, 34] was 18 nmol. It also gave an Aminopeptidase activity [5, 35] of 24 nmol, an Aminopeptidase activity [6, 36] of 4 nmol and an Aminopeptidase activity [29] of 0. The Aminopeptidase activity [7] was 1, the Aminopeptidase activity [7, 37] was 2 nmol and the Aminopeptidase activity [9] was 1. It also gave an Aminopeptidase activity [10] of 0, an Aminopeptidase activity [11] of 0 and an Aminopeptidase activity [12] of 0. The Aminopeptidase activity [13] was 0, the Aminopeptidase activity [14] was 0 and the Aminopeptidase activity [15] was 1. The Aminopeptidase activity [16] was 0, the Aminopeptidase activity [17, 38] was 1 nmol and the Aminopeptidase activity [18, 39] was 0 nmol. For the same molecule, the Aminopeptidase activity [19, 40] was 0 nmol, the Aminopeptidase activity [20, 41] was 1 nmol and the Aminopeptidase activity [20, 42] was 1 nmol. For the same molecule, the Aminopeptidase activity [20, 43] was 0 nmol, the Aminopeptidase activity [21, 44] was 24 nmol and the Aminopeptidase activity [21, 45] was 15 nmol. The Aminopeptidase activity [22, 46] was 0 nmol, the Aminopeptidase activity [23, 47] was 1 nmol and the Aminopeptidase activity [23, 48] was 1 nmol. It also gave an Aminopeptidase activity [23, 49] of 0 nmol, an Aminopeptidase activity [24, 50] of 0 nmol and an Aminopeptidase activity [25] of 65. It also gave an Aminopeptidase activity [26] of 0 and an Aminopeptidase activity [28] of 71.

In the case of `[Cu]` [copper], the “Sensitivity” value [1] is reported as “sensitive” and the “Inhibition … by metals” value [1] is reported as “inhibited”.

For `C[S+](C)[O-]` [DMSO, dimethyl-sulfoxide], the “Inhibition of B. gingivalis N-CBz-glycyl-glycyl-arginylpeptidase enzyme activity” value [1] was “inhibited”.

For `NCC(=O)N1CCC[C@H]1C(=O)O` [Gly-Pro, Glycyl-proline] (H-Gly-Pro-OH), the Aminopeptidase activity [2] was 10, the Aminopeptidase activity [3] was 17 and the Aminopeptidase activity [4] was 16. The Aminopeptidase activity [5] was 26, the Aminopeptidase activity [6] was 54 and the Aminopeptidase activity [29] was 0. For the same molecule, the Aminopeptidase activity [7] was 0, the Aminopeptidase activity [7, 37] was 0 nmol and the Aminopeptidase activity [8] was 75 and 109. For the same molecule, the Aminopeptidase activity [9] was 1, the Aminopeptidase activity [10] was 0 and the Aminopeptidase activity [11] was 0. It also gave an Aminopeptidase activity [12] of 0, an Aminopeptidase activity [13] of 0 and an Aminopeptidase activity [15] of 22. It also gave an Aminopeptidase activity [16] of 0, an Aminopeptidase activity [17] of 1 and an Aminopeptidase activity [18] of 5. The Aminopeptidase activity [19] was 0, the Aminopeptidase activity [21] was 105 and 90 and the Aminopeptidase activity [22] was 0. For the same molecule, the Aminopeptidase activity [24] was 0, the Aminopeptidase activity [30] was 22 and 17 and the Aminopeptidase activity [25] was 19. For the same molecule, the Aminopeptidase activity [26] was 2, the Aminopeptidase activity [27] was 15 and 22 and 27 and the Aminopeptidase activity [28] was 11.

`[Zn]` [zinc] was tested, and the “Inhibition … by metals” value [1] was “inhibited”.

For `[Cd]` [cadmium], the “Sensitivity” value [1] was “sensitive” and the “Inhibition … by metals” value [1] was “inhibited”.

`C[C@H](NC(=O)[C@@H](N)CCCCN)C(=O)O` [Lys-Ala, Lysyl-alanine] (H-Lys-Ala-OH) showed an Aminopeptidase activity [2] of 50, an Aminopeptidase activity [3] of 89 and an Aminopeptidase activity [4] of 36. For the same molecule, the Aminopeptidase activity [5] was 78, the Aminopeptidase activity [6] was 68 and the Aminopeptidase activity [29] was 0. For the same molecule, the Aminopeptidase activity [7, 37] was 0 nmol, the Aminopeptidase activity [9] was 0 and the Aminopeptidase activity [10] was 0. For the same molecule, the Aminopeptidase activity [11] was 0, the Aminopeptidase activity [12] was 0 and the Aminopeptidase activity [13] was 0. For the same molecule, the Aminopeptidase activity [14] was 0, the Aminopeptidase activity [15] was 2 and the Aminopeptidase activity [16] was 0. The Aminopeptidase activity [17] was 0, the Aminopeptidase activity [18] was 2 and the Aminopeptidase activity [19] was 0. The Aminopeptidase activity [20] was 0, the Aminopeptidase activity [22] was 0 and the Aminopeptidase activity [23] was 0. The Aminopeptidase activity [24] was 0, the Aminopeptidase activity [30] was 45 and 48 and the Aminopeptidase activity [25] was 54. For the same molecule, the Aminopeptidase activity [26] was 14, the Aminopeptidase activity [31] was 78 and 77 and 50 and 63 and 46 and 43 and the Aminopeptidase activity [28] was 50.

For `O=S(=O)(F)Cc1ccccc1` [phenylmethylsulfonylfluoride], the “Inhibition of B. gingivalis N-CBz-glycyl-glycyl-arginylpeptidase enzyme activity” value [1] was “inhibited”.
